{"source": "patent EP1676574A2", "about": "“Methods for promoting survival of transplanted tissues and cells” (Johnson & Johnson Vision Care, Inc., priority 2004, dated 2006)", "key": {"[1]": {"system": "Peripheral blood mononuclear cells (PBMCs)", "test": "Plasma clotting assay with PBMCs", "type": "cell-based, human", "conditions": "p38 inhibitor 10 µM pre-incubated 18 to 24 hours, anti-TF antibody added 30 minutes prior to clotting, OD405", "method": "Peripheral venous blood was obtained by consent from normal, healthy volunteers and mononuclear cells were isolated using Histopaque 1077 (Sigma) density gradient centrifugation. Following three washes with RPMI (Invitrogen) supplemented with 1% fetal calf serum (FCS), cells were counted and viability was assessed using a Guava PCA-96 instrument (Guava Technologies, Hayward, CA). Cells were resuspended to 1.67 x 10^6 cells/mL in RPMI media containing 10% FCS, and 4 mL/well were added to a 6-well dish (Corning-Costar). Lipopolysaccharide (LPS) was diluted into cell cultures to a final concentration of 10 ng/ml. p38 inhibitor compound 1 was added to cell cultures at a final concentration of 10 µM. An equivalent dilution of DMSO was added to untreated cultures. The following four assay conditions were: (+) LPS (+) p38 inhibitor, (+) LPS (-) p38 inhibitor, (-) LPS (+) p38 inhibitor, and (-) LPS (-) p38 inhibitor. […]\nPlasma Clotting Assay. […] Clotting was monitored at 15 second intervals for 2 hours at room temperature using a Spectra MAX 190 (Molecular Devices, Sunnyvale, CA) at a wavelength of 405 nm. […]\nPBMCs ([…] in 100 µl of HBSS) were pre-incubated with 25 µl of anti-TF antibody compound 3 (10 µg/ml) for 30 minutes at room temperature in the same 96-well plate as the untreated cells above. […] CaCl2 and pooled human plasma were added and the clotting reaction was monitored as described above."}, "[2]": {"system": "Human mesenchymal stem cells (MSC)", "test": "Plasma clotting assay with human mesenchymal stem cells", "type": "cell-based", "conditions": "p38 inhibitor 10 µM pre-culture 10 days; anti-TF antibody 30 minutes pre-binding; untreated cells 1042.0", "method": "(§1) In the previous example, cells were stimulated overnight to produce TF by LPS induction. Inhibition of this process was achieved by addition of p38 inhibitor compound 1, evaluated by plasma clotting assay. In this example, two types of cells were pre-cultured with the p38 inhibitors compound 1 and compound 2 for 10 days to evaluate the effect of p38 MAPK inhibitors on coagulation. Cells were separately treated using a final concentration of 10 µM of each p38 inhibitor. Parallel treatments of DMSO vehicle were included as a control. Media, containing the above compounds were replenished during culture at intervals of every 2 days.\n(§2) Human mesenchymal stem cells (MSC) were isolated from whole bone marrow purchased from Cambrex BioScience Walkersville, Inc. Cells were obtained from 10-ml aspirates taken from the iliac crest of normal human donors (age about 20 years). Mononuclear cells were isolated by gradient centrifugation. […]\n(§3) The plasma clotting assay was performed as described in Example 1. Cells were lightly trypsinized from culture on the day of assay, washed, counted, and viability was determined before adjusting to 10^6 cells/ml in HBSS. […] Coagulation was monitored at room temperature in a kinetic plate reader using 15 second interval readings at 405 nm over 60 to 120 minutes. A final reading of T1/2 maximal clotting time was obtained for each sample condition. […]"}, "J82 cells": {"system": "J82 cells", "test": "Plasma clotting assay with J82 bladder carcinoma cells", "type": "cell-based, human", "conditions": "p38 inhibitor 10 µM pre-culture 10 days; anti-TF antibody 30 minutes pre-binding; untreated cells 155.01", "method": "as §1, §2, §3"}, "isolated mouse islets": {"system": "isolated mouse islets", "test": "Plasma clotting assay with isolated mouse islets", "type": "cell-based, Balb/c mice", "conditions": "10 µM p38 inhibitor, islets cultured 72 hours; 50 islets/well; vehicle control 388.6 (compound 2 experiment), 488.9 (second experiment)", "method": "Pancreata were harvested from Balb/c mice via cannulation of the common bile duct and perfusion with a liberase solution (Roche). Pancreata were digested at 37°C for 15 minutes followed by discontinuous ficoll gradient centrifugation to remove acinar and ductal tissue.\nIslets of similar size were collected and plated in 3 ml of islet growth medium in a 6-well culture dish (300 islets per well) with or without p38 MAPK inhibitors (10 µM compound 1 or compound 2). Vehicle control was an equivalent dilution of DMSO. Islets were cultured at 37°C in 5% CO2 for 72 hours. The three treatment conditions were: vehicle control, (+) p38 inhibitor compound 1, and (+)p38 inhibitor compound 2.\nPlasma Clotting Assay. […] Clotting was monitored at 15 second intervals for 2 hours at room temperature in a Spectra MAX 190 (Molecular Devices, Sunnyvale, CA) at 405nm. Times to half maximum OD were calculated as 388.6 seconds for the vehicle control and 596.9 seconds for cells treated with p38 inhibitor compound 2. […] In a second experiment, the time to half maximum was calculated as 488.9 seconds for the vehicle control and 974.7 seconds for treated islets. […]"}}}
{"smiles": "OCCC#Cc1nc(-c2ccc(F)cc2)c(-c2ccncc2)n1CCCc1ccccc1", "note": "[compound 1, 4-[4-(4-fluorophenyl)-1-(3-phenylpropyl)-5-(4-pyridinyl)-1H-imidazol-2-yl]-3-butyn-1-ol]", "values": [{"measurement": "time to half the maximum OD", "setting": "[1]; (+) LPS 10 ng/ml, (+) LPS cells without inhibitor 928.6", "value": 1837.3, "unit": "s"}, {"measurement": "time to half the maximum OD", "setting": "[1]; (-) LPS, untreated cells 2946.4", "value": 3289.0, "unit": "s"}, {"measurement": "time to half the maximum OD", "setting": "[2]", "value": 1882.2, "unit": "s"}, {"measurement": "times to reach ½ maximal OD", "setting": "J82 cells", "value": 160.9, "unit": "s"}, {"measurement": "Times to half maximum OD", "setting": "isolated mouse islets", "value": 974.7, "unit": "s"}]}
